From paper PMC5303009, “Benzenesulphonamide inhibitors of the cytolytic protein perforin” (Bioorganic & Medicinal Chemistry Letters, 2017)
Where “and” joins values, the source holds several entries; their conditions need not be identical. Equal values may be shown once. Read-outs that look alike come from different tables or passages of the source.

Legend:
recombinant perforin [1] = target: T1, recombinant perforin (Mus musculus, UniProt P10820); conditions: diarylthiophene series; cited from earlier work
T1 sequence (P10820 21-554): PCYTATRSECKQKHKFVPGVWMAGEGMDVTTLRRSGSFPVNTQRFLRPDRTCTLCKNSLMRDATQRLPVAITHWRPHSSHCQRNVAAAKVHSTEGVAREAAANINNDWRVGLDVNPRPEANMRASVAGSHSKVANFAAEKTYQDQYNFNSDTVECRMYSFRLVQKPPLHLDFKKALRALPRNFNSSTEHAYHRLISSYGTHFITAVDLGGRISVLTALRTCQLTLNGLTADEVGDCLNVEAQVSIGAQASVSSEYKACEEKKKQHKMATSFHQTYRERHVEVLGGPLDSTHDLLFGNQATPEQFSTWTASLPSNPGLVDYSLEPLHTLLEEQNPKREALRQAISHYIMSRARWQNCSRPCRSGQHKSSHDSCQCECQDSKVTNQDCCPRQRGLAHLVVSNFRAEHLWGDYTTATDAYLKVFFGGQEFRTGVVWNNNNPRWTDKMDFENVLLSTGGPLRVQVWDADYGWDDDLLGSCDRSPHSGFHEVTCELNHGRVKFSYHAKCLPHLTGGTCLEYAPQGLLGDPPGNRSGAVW

[2] = Microsome stability, human; assay type: in vitro ADME; conditions: sodium salt, human microsomes, 30 min
[3] = Plasma protein binding by equilibrium dialysis; assay type: in vitro ADME; conditions: mouse plasma, 6 h incubation at 37 °C
[4] = target: T2, perforin delivered by KHYG-1 NK cells (Homo sapiens, UniProt P14222); experiment: KHYG-1 cytotoxicity assay: inhibition of NK cell lysis of 51Cr-labelled K562 target cells; assay type: cell-based; conditions: lysis of 51Cr-labelled K562 cells co-incubated with KHYG-1 NK cells, vs untreated control, ± SEM
T2 construct: The use of NK cells to secrete perforin rather than employing isolated recombinant protein is a more stringent test; endogenous in cells; host or cells: KHYG-1 NK cells (effector), K562 target cells
T2 sequence (P14222 22-555): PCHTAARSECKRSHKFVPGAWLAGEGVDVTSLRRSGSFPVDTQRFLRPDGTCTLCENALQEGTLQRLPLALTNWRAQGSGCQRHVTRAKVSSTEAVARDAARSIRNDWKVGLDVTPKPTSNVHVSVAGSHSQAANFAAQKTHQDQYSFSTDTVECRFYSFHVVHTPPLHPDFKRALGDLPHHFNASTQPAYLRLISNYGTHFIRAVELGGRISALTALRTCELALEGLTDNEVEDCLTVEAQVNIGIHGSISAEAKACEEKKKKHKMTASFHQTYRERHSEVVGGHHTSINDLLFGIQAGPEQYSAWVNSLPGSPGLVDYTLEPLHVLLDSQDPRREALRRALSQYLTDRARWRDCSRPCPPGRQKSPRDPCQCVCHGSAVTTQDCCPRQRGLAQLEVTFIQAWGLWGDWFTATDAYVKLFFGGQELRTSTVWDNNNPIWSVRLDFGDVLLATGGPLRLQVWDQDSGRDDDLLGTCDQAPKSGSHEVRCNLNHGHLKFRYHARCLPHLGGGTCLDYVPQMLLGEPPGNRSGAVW
Protocol: (§1) The use of NK cells to secrete perforin rather than employing isolated recombinant protein is a more stringent test of a compound’s ability to block lytic activity, requiring the inhibitor to access the synaptic cleft between effector (NK) and target cells where perforin is released.
Test compounds are then added (50 µL) at a final concentration of 20µM and incubated at RT for 20 min. ^51Cr-labelled K562 leukemia target cells (50 µL, 2 x 10^5 cells/mL) are then added to each well and incubated at 37 °C for 4 hours. ^51Cr release is assayed using a Skatron Harvesting Press and radioactivity estimated on a Wallac Wizard 1470 Automatic Gamma counter (Turku, Finland). The inhibitory function is then determined by identifying the number of untreated or inhibitor treated effector cells required to kill the same number of targets. The percent inhibition is calculated by the formula: […]
Where x is the point the inhibitor intersects with the DMSO on a curve.

[5] = target: Class I PI3-kinase enzyme p110α/p85 (Homo sapiens, UniProt P42336); experiment: PI3K-α counterscreening; assay type: biochemical; conditions: recombinant PI3-kinase, phosphatidylinositol substrate, [33P]-ATP; read-out: PI3Kα IC50
Protocol: Given that the pyridine-3-yl-2,4-difluorobenzenesulphonamide subunit is derived from a structure that was optimised to target PI3Kα, it was also considered prudent to counter-screen for off-target effects related to this pathway.
Compounds were evaluated for their ability to inhibit the Class I PI3-kinase enzyme p110α/p85.

[6] = Stability in solution (water); assay type: physicochemical; conditions: sodium salt, 24 h at 20 °C in water
[7] = Solubility of the sodium salt in water; assay type: physicochemical
Microsome stability, rat = assay type: in vitro ADME; conditions: sodium salt, rat microsomes, 30 min
[8] = Microsome stability, mouse; assay type: in vitro ADME; conditions: sodium salt, mouse microsomes, 30 min
KHYG-1 NK cells = experiment: Toxicity to KHYG-1 NK cells (Trypan blue exclusion); assay type: cell-based, human; conditions: after 24 h, ± SEM, 20 µM
Protocol: as §1
(§2) The toxicity assay was carried out in exactly the same manner as the killing assay above, but instead of adding the labelled K562 target cells, 100 μL of RPMI 0.1% BSA was added. Cells were incubated for 4 h at 37 °C and then washed ×3 in RPMI + 0.1% BSA. […] Trypan blue was added to each well. Viable (clear) cells and total (clear + blue) cells were counted, and the percentage of viable cells was calculated compared to DMSO treated cell control (% viability).

[9] = as above; assay type: cell-based, human; conditions: human, KHYG-1 NK cells, after 24 h, ± SEM
Protocol: as §1, §2

recombinant perforin [10] = target: T1, recombinant perforin; experiment: Inhibition of perforin-mediated lysis of Jurkat cells (51Cr release); assay type: cell-based
Protocol: The ability of the compounds to inhibit the lysis of nucleated (Jurkat T lymphoma) cells in the presence of 0.1% BSA, as measured by release of ^51Cr was measured. Jurkat target cells were labelled by incubation in medium with 100 µCi ^51Cr for one hour. The cells were then washed three times to remove unincorporated isotope and re-suspended at 1 x 10^5 cells per mL in RPMI buffer supplemented with 0.1% BSA. […] The supernatant was collected and assessed for its radioactive content on a gamma counter (Wallac Wizard 1470 automatic gamma counter). Each data point was performed in triplicate and an IC50 was calculated from the range of concentrations described to above.

recombinant perforin [11] = target: T1, recombinant perforin; experiment: as above; assay type: cell-based; conditions: read-out: Inhibitory activity in Jurkat assay at 20 μM with serum
[12] = sodium salt in water at room temperature
[13] = read-out: Inhibition of Jurkat cell lysis IC50; recombinant perforin, 0.1% BSA, 51Cr release, 4 h; average of at least two determinations
[14] = recombinant perforin, 0.1% BSA, 51Cr release, 4 h; average of at least two determinations; read-out: Inhibition of Jurkat cell lysis IC50

Class I PI3-kinase enzyme p110α/p85, sequence (P42336 whole entry): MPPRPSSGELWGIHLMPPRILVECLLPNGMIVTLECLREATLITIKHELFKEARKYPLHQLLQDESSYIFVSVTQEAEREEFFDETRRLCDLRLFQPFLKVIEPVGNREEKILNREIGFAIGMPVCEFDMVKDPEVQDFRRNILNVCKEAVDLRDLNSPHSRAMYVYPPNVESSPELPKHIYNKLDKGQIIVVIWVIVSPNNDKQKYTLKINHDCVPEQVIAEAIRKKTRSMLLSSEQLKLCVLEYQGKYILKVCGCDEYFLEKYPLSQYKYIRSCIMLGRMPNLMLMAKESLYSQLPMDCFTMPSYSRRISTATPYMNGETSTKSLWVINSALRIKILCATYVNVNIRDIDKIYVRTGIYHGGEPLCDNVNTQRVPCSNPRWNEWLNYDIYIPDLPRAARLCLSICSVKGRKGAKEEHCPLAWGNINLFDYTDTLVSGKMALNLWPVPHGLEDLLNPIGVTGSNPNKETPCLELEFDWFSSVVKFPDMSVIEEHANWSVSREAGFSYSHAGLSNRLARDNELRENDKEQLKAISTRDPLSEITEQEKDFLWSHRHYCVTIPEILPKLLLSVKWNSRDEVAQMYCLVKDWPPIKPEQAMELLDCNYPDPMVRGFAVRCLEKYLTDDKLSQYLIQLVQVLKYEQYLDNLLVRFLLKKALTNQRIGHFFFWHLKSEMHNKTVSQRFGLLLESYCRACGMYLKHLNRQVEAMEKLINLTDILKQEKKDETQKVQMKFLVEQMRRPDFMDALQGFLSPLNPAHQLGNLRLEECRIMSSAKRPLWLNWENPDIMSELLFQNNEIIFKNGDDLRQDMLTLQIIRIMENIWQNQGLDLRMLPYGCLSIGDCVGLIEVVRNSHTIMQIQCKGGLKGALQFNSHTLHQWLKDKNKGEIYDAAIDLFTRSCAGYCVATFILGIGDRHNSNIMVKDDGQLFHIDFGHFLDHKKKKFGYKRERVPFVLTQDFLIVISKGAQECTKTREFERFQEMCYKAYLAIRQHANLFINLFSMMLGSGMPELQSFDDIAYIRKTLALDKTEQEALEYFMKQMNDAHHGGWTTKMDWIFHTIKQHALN
Class I PI3-kinase enzyme p110α/p85, sequence (P27986 whole entry partner): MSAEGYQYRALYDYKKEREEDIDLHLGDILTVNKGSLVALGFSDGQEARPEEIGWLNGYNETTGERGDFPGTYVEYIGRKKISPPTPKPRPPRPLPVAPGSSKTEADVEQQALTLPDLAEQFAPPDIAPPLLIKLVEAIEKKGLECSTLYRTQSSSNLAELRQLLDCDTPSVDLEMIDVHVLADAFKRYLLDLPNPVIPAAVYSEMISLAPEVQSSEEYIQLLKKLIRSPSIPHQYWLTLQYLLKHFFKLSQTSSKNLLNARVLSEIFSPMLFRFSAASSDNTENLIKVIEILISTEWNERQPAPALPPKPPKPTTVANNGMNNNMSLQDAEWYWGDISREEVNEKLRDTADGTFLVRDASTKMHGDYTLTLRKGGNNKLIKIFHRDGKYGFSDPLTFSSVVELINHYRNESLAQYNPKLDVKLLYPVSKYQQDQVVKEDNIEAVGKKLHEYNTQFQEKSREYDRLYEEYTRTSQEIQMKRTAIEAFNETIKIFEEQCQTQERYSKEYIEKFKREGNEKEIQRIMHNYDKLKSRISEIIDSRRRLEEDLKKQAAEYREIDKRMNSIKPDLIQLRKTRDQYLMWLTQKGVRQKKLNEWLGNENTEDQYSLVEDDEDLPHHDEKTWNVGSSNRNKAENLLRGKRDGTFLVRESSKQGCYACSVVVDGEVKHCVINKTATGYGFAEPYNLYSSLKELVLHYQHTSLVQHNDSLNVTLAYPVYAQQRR

Compound: CS(=O)(=O)Nc1ccc(-c2ccc(-c3ccc4c(c3)COC4=O)s2)cc1 [Compound 2]
- Inhibition of isolated perforin (recombinant perforin [1]): sub-micromolar

Compound: NC(=O)c1ccc(-c2ccc(-c3ccc4c(c3)COC4=O)s2)cn1 [Compound 3]
- Inhibition of isolated perforin (recombinant perforin [1]): sub-micromolar

Compound: CN1Cc2cc(-c3ccc(-c4cncc(NS(=O)(=O)c5ccc(F)cc5F)c4)s3)ccc2C1=O [Compound 5]
- Microsome stability (% parent remaining), Human [2]: 58%
- fraction unbound at 6 h [3]: 0.0011
- inhibition at 20 µM [4]: 88 ± 3.8%
- IC50 [5]: > 6.25 µM
- Stability in solution (% parent remaining) [6]: 82% and 81.5%
- solubility ([7]; sodium salt in water): 1100 µg/mL
- solubility [7, 12]: 1080 µg/mL

Compound: O=C1NCc2cc(-c3ccc(-c4cncc(NS(=O)(=O)c5ccc(F)cc5F)c4)s3)ccc21 [Compound 6]
- Microsome stability (% parent remaining), Rat (Microsome stability, rat): 88%
- Microsome stability (% parent remaining), Human [2]: 85%
- Microsome stability (% parent remaining), Mouse [8]: 92%
- fraction unbound at 6 h [3]: 0.003
- KHYG-1 viability (% at 20 μM) (KHYG-1 NK cells): 94 ± 4.0%
- viability at 24 h, 20 µM [9]: > 90%
- Stability in solution (% parent remaining) [6]: 82.0%
- solubility ([7]; sodium salt in water): 10600 µg/mL
- solubility [7, 12]: 10600 µg/mL

Compound: O=C1NCc2ccc(-c3ccc(-c4cncc(NS(=O)(=O)c5ccc(F)cc5F)c4)s3)cc21 [Compound 7]
- IC50 (recombinant perforin [10]; [13]): 4.15 µM
- Microsome stability (% parent remaining), Rat (Microsome stability, rat): 82%
- Microsome stability (% parent remaining), Human [2]: 83%
- Microsome stability (% parent remaining), Mouse [8]: 42%
- fraction unbound at 6 h [3]: 0.0003
- KHYG-1 viability (% at 20 μM) (KHYG-1 NK cells): 96 ± 6.0%
- viability at 24 h, 20 µM [9]: > 90%
- Stability in solution (% parent remaining) [6]: 97% and 97.3%
- solubility ([7]; sodium salt in water): 12900 µg/mL
- solubility [7, 12]: 12900 µg/mL

Compound: CN1Cc2ccc(-c3ccc(-c4cncc(NS(=O)(=O)c5ccc(F)cc5F)c4)s3)cc2C1=O [Compound 8]
- IC50 (recombinant perforin [10]; [13]): 10.4 µM

Compound: O=C1NCCc2cc(-c3ccc(-c4cncc(NS(=O)(=O)c5ccc(F)cc5F)c4)s3)ccc21 [Compound 9]
- IC50 (recombinant perforin [10]; [14]): > 20 µM

Compound: CN1CCc2cc(-c3ccc(-c4cncc(NS(=O)(=O)c5ccc(F)cc5F)c4)s3)ccc2C1=O [Compound 10]
- IC50 (recombinant perforin [10]; [14]): > 20 µM

Compound: O=C1NCCc2ccc(-c3ccc(-c4cncc(NS(=O)(=O)c5ccc(F)cc5F)c4)s3)cc21 [Compound 11]
- IC50 (recombinant perforin [10]; [14]): > 20 µM

Compound: CC1c2cc(-c3ccc(-c4cncc(NS(=O)(=O)c5ccc(F)cc5F)c4)s3)ccc2C(=O)N1C (stereo not drawn) [Compound 13]
- Inhibition of Jurkat cell lysis IC50 (recombinant perforin [10]; recombinant perforin, 0.1% BSA, 51Cr release, 4 h; average of at least two determinations): poor activity
- IC50 (recombinant perforin [10]; [14]): > 20 µM

Compound: O=C1Cc2cc(-c3ccc(-c4cncc(NS(=O)(=O)c5ccc(F)cc5F)c4)s3)ccc2N1 [Compound 14]
- Fold superior to N-methyl partner 15 (Jurkat IC50) (recombinant perforin [10]; compared with compound 15): ~2 fold
- IC50 (recombinant perforin [10]; [13]): 5.18 µM
- Microsome stability (% parent remaining), Rat (Microsome stability, rat): 79%
- Microsome stability (% parent remaining), Human [2]: 71%
- Microsome stability (% parent remaining), Mouse [8]: 84%
- fraction unbound at 6 h [3]: 0.0009
- KHYG-1 viability (% at 20 μM) (KHYG-1 NK cells): 96 ± 1.0%
- viability at 24 h, 20 µM [9]: > 90%
- Stability in solution (% parent remaining) [6]: 88.7%
- solubility ([7]; sodium salt in water): 390 µg/mL
- solubility [7, 12]: 392 µg/mL

Compound: CN1C(=O)Cc2cc(-c3ccc(-c4cncc(NS(=O)(=O)c5ccc(F)cc5F)c4)s3)ccc21 [Compound 15]
- IC50 (recombinant perforin [10]; [13]): 10.3 µM

Compound: O=S(=O)(Nc1cncc(-c2ccc(-c3ccc4[nH]ccc4c3)s2)c1)c1ccc(F)cc1F [Compound 16]
- inhibition at 20 µM (recombinant perforin [10]; Jurkat, read-out: Inhibitory activity in Jurkat assay at 20 μM): 88%
- inhibition at 20 µM (recombinant perforin [11]): 32%

Compound: Cn1ccc2cc(-c3ccc(-c4cncc(NS(=O)(=O)c5ccc(F)cc5F)c4)s3)ccc21 [Compound 17]
- IC50 (recombinant perforin [10]; [13]): 7.58 µM

Compound: CC(=O)c1cn(C)c2ccc(-c3ccc(-c4cncc(NS(=O)(=O)c5ccc(F)cc5F)c4)s3)cc12 [Compound 18]
- IC50 (recombinant perforin [10]; [13]): 11.2 µM

Compound: CN1Cc2cc(-c3ccc(-c4cncc(NS(=O)(=O)c5ccc(F)cc5F)c4)o3)ccc2C1=O [Compound 19]
- IC50 (recombinant perforin [10]; [14]): 15 µM

Compound: CN1Cc2cc(-c3ncc(-c4cncc(NS(=O)(=O)c5ccc(F)cc5F)c4)s3)ccc2C1=O [Compound 20]
- IC50 (recombinant perforin [10]; [13]): 17.1 µM

Compound: CN1Cc2cc(-c3nc(-c4cncc(NS(=O)(=O)c5ccc(F)cc5F)c4)cs3)ccc2C1=O [Compound 21]
- IC50 (recombinant perforin [10]; [14]): > 20 µM

Compound: CN1Cc2cc(-c3ccc(-c4cncc(NS(=O)(=O)c5ccc(F)cc5F)c4)nc3)ccc2C1=O [Compound 22]
- IC50 (recombinant perforin [10]; [13]): 8.17 µM
